The values below come from patent publication US11679099B2, “Use of HIF-2α inhibitors for treating chondrosarcoma, or preventing recurrence and metastasis thereof” (SEOUL NATIONAL UNIVERSITY R&DB FOUNDATION, priority 2020, dated 2023).

Data set [1] relates to SW1353 cells. Put plainly: Apoptosis analysis, Annexin-V/PI flow cytometry. It is filed as cell-based, human. Conditions: 10 μM TC-S7009 pretreatment 48 h and/or 5 μg/ml cisplatin 24 h. The procedure:
Drug Interaction Studies. For analysis of combination index (CI), SW1353 cells were pretreated with vehicle, 10 μM Nutlin-3a, 10 μM ABT-888, or 10 μM TC-S7009 for 48 h and additionally treated with 0.2, 0.5, 1, 2, or 5 μg/ml cisplatin or left untreated for 72 h. Cell viability was measured by the MTT assay. CI was calculated using the Compusyn software version 1.0, and synergistic effects were determined by the Chou-Talalay method (Chou T C. Drug Combination Studies and Their Synergy Quantification Using the Chou-Talalay Method. Cancer Res. 2010; 70(2):440-446). Drug combination at a non-constant ratio was used to calculate CI. For apoptosis analysis, SW1353 cells were pretreated with vehicle, 10 μM Nutlin-3a, 10 μM ABT-888, or 10 μM TC-S7009 for 48 h and additionally treated with 5 μg/ml cisplatin for 24 h. Subsequently, cells were stained with the Annexin V-FITC Apoptosis Detection Kit (Sigma Aldrich, APOAF) according to manufacturer's protocol. Flow cytometry analysis was performed on a FACSCanto II flow cytometer (BD Biosciences).
In general terms: In flow cytometry, cells or beads pass a laser one at a time.

The test system of a further data set is SW1353 tumors. Put plainly: Adjuvant chemotherapy in orthotopic chondrosarcoma xenograft model. It is filed as in vivo, athymic nude mice (BALB/c nu/nu). Conditions: mice, i.p., 2 mg/kg cisplatin and/or 20 mg/kg TC-S7009, twice weekly for four weeks. The text has this: FIG. 5G is a schematic diagram of combination chemotherapy with TC-S7009. Mice were intraperitoneally injected 8 times with DMSO, cisplatin, TC-S7009, or cisplatin plus TC-S7009, twice a week from two weeks following the orthotopic xenograft (n=5).
Mice and experimental systems. Female athymic nude mice (BALB/c nu/nu, 5 weeks old) were purchased from Daehan-Biolink Co. and housed in individually ventilated cages. Mice were maintained under pathogen-free conditions. Food and water were provided after their sterilization. For in vivo experiments, at least five mice per experimental condition were used. Animals were randomly allocated to each experimental group, and the treatment allocation was blinded. In the orthotopic injection model, SW1353 cells were trypsinized and resuspended in PBS after centrifugation. The number of cells was adjusted to 1×10^6 cells per 25 μl. For SW1353 cells that stably overexpressed eGFP or HIF-2α, cell number was adjusted to 1×10^5 cells per 25 μl. Cells were mixed with 25 μl of Geltrex (Thermo Fisher Scientific, Geltrex™ LDEV-Free Reduced Growth Factor Basement Membrane Matrix). Before the procedure, mice were anesthetized. Skin was incised using a scalpel, and a single 0.35-mm diameter hole was drilled through the cartilage of the upper right tibia with the aid of sterile H-files (MANI, 28 mm #70). Subsequently, 10 μl of cell mixture was slowly injected with a 30-gauge microsyringe needle through the hole. The hole was sealed using surgical wax, and the surgery site was extensively rinsed with sterile PBS to wash out any spilled cell mixture. As the last step of the surgical procedure, the cutaneous wound was sutured. After the chosen experimental periods, mice were sacrificed, and total hindlimbs were dissected. For lung specimens, PBS was instilled through the trachea, and all specimens were processed for histomorphometric and immunohistochemical analysis. For the adjuvant chemotherapy studies, two weeks after the orthotopic injection of chondrosarcoma cells, mice were injected intraperitoneally with or without 2 mg/kg cisplatin in the presence or absence of 20 mg/kg TC-S7009 (Tocris) dissolved in Kolliphor EL (castor oil, 10% v/v, Sigma Aldrich, C5135). Vehicle solution was composed of DMSO, PBS, and Kolliphor EL (10% v/v). Chemotherapy cocktails were administered to mice twice weekly for four weeks.

The target of data set [2] is T1, HIF-2α (Homo sapiens, UniProt Q99814).
T1 construct: host or cells: SW1353 cells
Put plainly: HRE reporter gene (luciferase) assay. In kind it is cell-based. The settings on record: SW1353 cells co-transfected with pcDNA3-EPAS1 and HRE reporter; different doses of TC-S7009, 24 h. In general terms: In a reporter assay the amount or activity of a reporter protein is the signal.
Procedure: (A) SW1353 cells were co-transfected with pcDNA3 or pcDNA3-EPAS1 and the HRE containing reporter plasmid in the absence or presence of different doses of TC-S7009. HRE reporter activity was normalized to Renilla luciferase activity (n=5). […] (Scale bar, 200 μm.) Values indicate the mean±SEM, ***P<0.001, N.S., not significant, ANOVA (A-C) and Student's t test (D).
Luciferase assay. HIF-2α activity was determined by reporter gene assay. SW1353 cells were transfected with 1 μg of a reporter vector containing hypoxia responsive element repeats. The thymidine kinase promoter-Renilla luciferase reporter plasmid (pRL-TK) was used as a control for measuring transfection efficiency. […] Twenty-four hours after transfection, cells were treated with TC-S7009 for an additional 24 h. Luciferase activity was measured using luciferin and normalized by Renilla luciferase activity.

The subject of data set [3] is SW1353 cells. Put plainly: Trypan blue exclusion assay (cell viability). In kind it is cell-based, human. The text has this:
(§1) (A) SW1353 cells were co-transfected with pcDNA3 or pcDNA3-EPAS1 and the HRE containing reporter plasmid in the absence or presence of different doses of TC-S7009. HRE reporter activity was normalized to Renilla luciferase activity (n=5). (B) Trypan blue exclusion assay to test the effect of TC-S7009 on cell viability of SW1353 cells (n=3). (C) Colony formation assay of SW1353 cells in the absence or presence of different doses of TC-S7009. The number of colonies counted using the ImageJ software (n=5). (D) Migration assay performed using SW1353 cells treated with DMSO or 10 μM TC-S7009. Representative images are shown (Left), and the relative area of migration (Right) was determined using the Image-Pro Premier software (n=6). (Scale bar, 200 μm.) Values indicate the mean±SEM, ***P<0.001, N.S., not significant, ANOVA (A-C) and Student's t test (D). P values; N.S.=non-significant, ***P<0.001. HRE=hypoxia response element; P=P value.

The test system of data set [4] is SW1353 cells. As to the kind of experiment: Transwell invasion assay. In kind it is cell-based, human. Conditions: 10 μM TC-S7009 vs DMSO. As to the method: FIG. 5A is the results of Transwell invasion (n=3) assay using SW1353 cells treated with DMSO or 10 μM TC-S7009. Representative images were shown, the invaded cells were calculated on the random image fields and normalized to the cells treated with DMSO. Scale Bar=200 μm.
Transwell invasion assay. The invasion assay was performed using Transwell (BD Falcon, pore size, 8 μm, PET) in 24-well plates. Filters were coated with 20 μg of Geltrex (Thermo Fisher Scientific) in 20 μl of serum-free DMEM and dried for 4 h in a sterile environment. Prior to the invasion assay, SW1353 and OUMS-27 cells were starved for 12 h in serum-free DMEM. Immediately before seeding the cells, the dried transwells were rehydrated with 25 μl of serum-free DMEM for 1 h at 37° C. Starved cells were trypsinized, centrifuged, and resuspended in serum-free DMEM. Approximately 1×10^5 cells in 200 μl of serum-free DMEM were placed in each transwell and 2 ml of DMEM supplemented with 10% FBS was placed in each 24-well plate. The plates were incubated for 48 h at 37° C., fixed in 4% paraformaldehyde for 2 min, permeabilized in 100% methanol for 20 min, and stained with 0.1% crystal violet in 10% ethanol for 20 min. Cells on the upper side of the transwell were removed with cotton-tipped swabs. […] Image fields were randomly chosen, and invading cells were counted using the ImageJ software (National Institutes of Health).

For data set [5], the system named is SW1353 cells. As to the kind of experiment: Gelatin degradation assay. In kind it is cell-based, human. Conditions: 10 μM TC-S7009 vs DMSO. As to the method:
Gelatin degradation assay. SW1353 cells were seeded on coverslips coated with Oregon Green 488-conjugated gelatin (Life Technologies) at 4×10^4 cells per well. Briefly, coverslips were treated with 50 μg/ml poly-D-Lysine (Corning) for 20 min followed by 0.5% glutaraldehyde (Junsei Chemical) for 15 min on ice. Treated coverslips were coated at 37° C. with pre-warmed 200 μg/ml Oregon Green 488-conjugated gelatin for 10 min in the dark, treated with 5 mg/ml NaBH4 for 15 min, and extensively washed with 70% ethanol and PBS. Cells were incubated for 18 h after seeding. For imaging gelatin degradation, cells were fixed with 50% methanol (v/v) and 10% acetic acid (v/v) solution for 10 min and stained with DAPI. For each coverslip, three fields were imaged at 20× magnification using a fluorescence microscope (EVOS FL Cell Imaging System, Thermo Fisher Scientific). To quantify gelatin degradation, the area of degradation in each field was measured by color-thresholding, using the ImageJ software.

Data set [6] has as its system SW1353 cells. Put plainly: Sphere formation assay. It is filed as cell-based, human. The settings on record: 10 μM TC-S7009 vs DMSO. The procedure: FIG. 5C is the results of sphere formation (n=3) assays using SW1353 cells treated with DMSO or 10 μM TC-S7009 assay using SW1353 cells treated with DMSO or 10 μM TC-S7009. The representative images were shown and the diameter of the spheres were measured. Box-whisker plot were used to present the data. Scale Bar=200 μm.
Sphere formation assay. SW1353 and OUMS-27 cells were suspended in DMEM-F12 medium supplemented with 2% of B27 supplement (Thermo Fisher Scientific), 20 ng/ml EGF (Invitrogen), and 20 ng/ml basic fibroblast growth factor (bFGF; Peprotech). For experiments using SW1353 cells overexpressing eGFP or HIF-2α, cells were suspended in DMEM-F12 medium in the absence of the above supplements. Cells were then seeded in 24-well Ultra-low attachment plates (Corning) at a density of 1×10^4 cells per well. Four days later, fresh medium was added in each well. Seven days later, spheres were analyzed by the sphere diameter and the number of spheres larger than 50 μm (Axio Observer Z1, Zeiss). In relation to the diameter of the spheres, three representative fields per well were imaged, and diameters were measured using the AxioVision software (Zeiss): the three longest diameters per image field for each group were recorded. The distribution of the sphere diameters was plotted using the notched Box-and-Whisker plot originally invented by Tukey. […]

The subject of data set [7] is SW1353 cells. As to the kind of experiment: Colony formation assay. In kind it is cell-based, human. The settings on record: 10 μM or different doses of TC-S7009 vs DMSO. As to the method:
FIG. 5D is the results of colony formation (P<0.001, n=5) assays using SW1353 cells treated with DMSO or 10 μM TC-S7009 assay using SW1353 cells treated with DMSO or 10 μM TC-S7009. The representative images and quantification results were shown.
as §1
Colony formation assay. SW1353 cells were suspended in DMEM supplied with 10% FBS and seeded in 6-well plates; 1×10^3 and 500 cells were seeded in each well for the knockdown and overexpression experiments, respectively. […]

Data set [8] concerns SW1353 cells. Put plainly: Migration assay. It is filed as cell-based, human. Conditions: 10 μM TC-S7009 vs DMSO.
Source text: as §1
Migration assay. SW1353 and OUMS-27 cells were cultured in a 6-well plate at a density of 5×10^5 cells per well. When cells achieved 90% confluence, a wound was made with a sterile yellow tip. Cells were washed with PBS three times and incubated in fresh media with 1% FBS for 36 h. Every 12 h, randomly selected fields were captured by a digital camera under a microscope.

Data set [9] concerns HIF-2α. Put plainly: siRNA knockdown of HIF-2α in SW1353 cells. In kind it is cell-based, human. Conditions: SW1353 cells transfected with siRNA. As to the method:
Cell culture. Chondrosarcoma cell lines SW1353 and OUMS-27 were purchased from ATCC and JCRB Cell Bank, respectively, maintained in 3% O2 at 37° C., and cultured in DMEM (WelGENE Inc., LM001-05) supplemented with 10% FBS (Gibco, 26140079) and 1% antibiotics. For the selection of stable cell lines, 1×10^3 cells were seeded in 100 mm dishes and incubated for approximately two weeks until colonies became visible, and they were supplied with fresh media every three days. Visible colonies were individually isolated using cloning rings. Single colony-forming cells were trypsinized, seeded into 24-well plates, and gradually expanded to 100 mm dishes. Transfection was performed with METAFECTENE PRO (Biontex, T040) according to the manufacturer's protocol. All siRNAs were purchased from Bioneer. All cell lines were tested and authenticated using short-tandem repeat (STR) profiling by the Korean Cell Line Bank and were free of mycoplasma contamination. None of the cell line stocks used in this study was found in the database of commonly misidentified cell lines listed by ICLAC.
Microarray. SW1353 cells (3×10^5) were transfected with control, HIF1A, or EPAS1 siRNAs. Three biological replicates were used for each group. cDNA was synthesized using the GeneChip WT (Whole Transcript) Amplification kit as described by the manufacturer. […]

Entries after “also recorded” stand apart in the source; their conditions may differ.

T1 sequence (Q99814 whole entry): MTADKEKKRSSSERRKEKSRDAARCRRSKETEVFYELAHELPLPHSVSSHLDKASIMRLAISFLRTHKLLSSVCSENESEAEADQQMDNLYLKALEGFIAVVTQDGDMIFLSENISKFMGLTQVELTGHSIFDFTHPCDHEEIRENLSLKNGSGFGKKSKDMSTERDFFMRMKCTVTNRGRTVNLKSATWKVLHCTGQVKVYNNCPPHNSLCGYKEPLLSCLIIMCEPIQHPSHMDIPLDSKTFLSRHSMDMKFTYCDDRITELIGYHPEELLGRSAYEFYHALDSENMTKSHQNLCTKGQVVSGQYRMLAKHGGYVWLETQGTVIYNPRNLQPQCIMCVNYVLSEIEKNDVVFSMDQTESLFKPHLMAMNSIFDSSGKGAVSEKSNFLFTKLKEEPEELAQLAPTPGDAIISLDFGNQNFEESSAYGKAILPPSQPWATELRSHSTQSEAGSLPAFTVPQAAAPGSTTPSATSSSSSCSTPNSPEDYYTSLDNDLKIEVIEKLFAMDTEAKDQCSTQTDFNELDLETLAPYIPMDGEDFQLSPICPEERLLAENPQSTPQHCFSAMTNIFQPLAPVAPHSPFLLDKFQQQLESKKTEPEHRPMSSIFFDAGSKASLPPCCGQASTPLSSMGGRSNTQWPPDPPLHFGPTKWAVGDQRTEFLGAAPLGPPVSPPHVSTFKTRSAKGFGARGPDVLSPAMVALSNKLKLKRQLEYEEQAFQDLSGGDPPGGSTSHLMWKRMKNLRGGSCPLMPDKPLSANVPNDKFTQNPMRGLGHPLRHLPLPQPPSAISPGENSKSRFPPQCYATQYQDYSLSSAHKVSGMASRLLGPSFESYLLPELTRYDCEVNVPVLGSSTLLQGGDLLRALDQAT

Take `N.N.[Cl][Pt][Cl]` [Cisplatin, cisplatin]: the “apoptotic cells (Annexin-V and PI positive populations)” value with SW1353 cells [1] is “mild increase”. In the data set on SW1353 tumors, the “extraosseous outgrowth of primary tumor” value is “mild-to-moderate reduction” and the “pulmonary (lung) metastasis” value is “mild-to-moderate reduction”.

On to `O=[N+]([O-])c1c(Nc2cc(F)cc(Cl)c2)ccc2nonc12` [TC-S7009, N-(3-Chloro-5-fluorophenyl)-4-nitro-2,1,3-benzoxadiazol-5-amine], for which the “transcriptional activity of HIF-2α (HRE reporter activity)” value on HIF-2α [2] is given as “effectively abolished; also recorded: effectively blocks”. In addition, the “cytotoxicity / cell viability” value in the data set with SW1353 cells [3] was “without any apparent cytotoxicity; also recorded: without affecting”. Also, the “invasive phenotypes (transwell invasion)” value with SW1353 cells [4] was “effectively blocked”. Further, the “matrix-degrading activity (gelatin degradation)” value with SW1353 cells [5] is given as “effectively blocked”. Further, in the data set with SW1353 cells [6], the sphere formation result is reported as “effectively blocked”. In the data set with SW1353 cells [7], the “clonogenicity (colony formation)” value is on record as “effectively blocked”. Further, the migration ability entry in the data set with SW1353 cells [8] was “without affecting”. In addition, in the data set on SW1353 cells [1], the “apoptotic cells (Annexin-V and PI positive populations)” value was “did not noticeably affect cell death”. Besides, in the data set on SW1353 tumors, the “extraosseous outgrowth of primary tumor” value is “mild-to-moderate reduction” and the “pulmonary (lung) metastasis” value was “mild-to-moderate reduction”.

Turning to “EPAS1 siRNA: siRNA for HIF-2α, sense and antisense SEQ ID Nos: 3 and 4 with dTdT overhang (sense ACUACGUCCUGAGUGAGAUDTDT; antisense AUCUCACUCAGGACGUAGUDTDT; dTdT overhangs, chemistry not fully specified)”, in the data set on HIF-2α [9], the “expression of HIF-2α at the cellular level” value is recorded as “effectively suppress”.
